According to article PMC11423540, “Synthesis and biological evaluation of ortho-phenyl phenylhydroxamic acids containing phenothiazine with improved selectivity for class IIa histone deacetylases” (Journal of Enzyme Inhibition and Medicinal Chemistry, 2024):

Assays:
[1] = tested on: HDAC4 protein; test: Surface plasmon resonance binding to HDAC4; details: Figure S1
Description: HDAC4 protein was crosslinked by EDC (1-ethyl-3-(3-dimethylaminopropyl) carbodiimide) and NHS (N-hydroxysuccinimide). The crosslinking reagent and protein were co- incubated 30 minutes at 25°C.
Binding reactivity to mutant HDAC4 protein was performed by SPR (OpenSPR, Nicoyalife). The recombinant HDAC4 protein was crosslinked by EDC/NHC regent, followed by dilution to a concentration of 50 μg/mL with PBS and immobilized onto a amine sensor chip (Nicoyalife). The analytes were tested at various dilutions in PBST, and the flow rate was maintained at 20 μL/min during analysis. The amine sensor chip was regenerated with 10 mM glycine−HCl, pH2.5. The results were analyzed using TraceDrawer software (Nicoyalife).

[2] = tested on: SCC2095 cells; test: Cell viability (MTT) assay, SCC2095; type: cell-based; details: Homo sapiens, 48 h, human oral cancer cells, read-out: IC50 of cytotoxicity SCC2095
Description: Human breast cancer MDA-MB-231 cells and gastric cancer SCM-1 cells were purchased from the American Type Culture Collection (Manasas, VA, USA). SCC2095 human oral cancer cells were kindly provided by Professor Susan R. Mallery (The Ohio State University).
(§1) To assess cell viability, cells were seeded in three replicates into 96-well plates at a density of 5×10^3/well for 24 h following incubation with compounds at the indicated concentrations. Then, cell viability was assessed with 3–(4,5-dimethylthiazol-2-yl)-2,5-diphenyltetrazolium bromide (MTT) solution (0.5 mg/mL) for 4h as described previously. After removing the medium, 200 µL of DMSO was added, and then the absorbance was measured at 570 nm using a plate reader (BMG LABTECH, Germany).

[3] = tested on: MDA-MB-231 cells; test: Cell viability (MTT) assay, MDA-MB-231; type: cell-based; details: human breast cancer cells, read-out: IC50 of cytotoxicity MDA-MB-231
From the text: (§2) Human breast cancer MDA-MB-231 cells and gastric cancer SCM-1 cells were purchased from the American Type Culture Collection (Manasas, VA, USA). SCC2095 human oral cancer cells were kindly provided by Professor Susan R. Mallery (The Ohio State University). Normal human lung fibroblasts (NHLFs; CC-2512) were purchased from the Lonza (Walkersville, MD, USA). SCM-1 cells were maintained in RPMI-1640 medium (Invitrogen, Carlsbad, CA, USA); MDA-MB-231 and SCC2095 cells were maintained in DMEM/F12 (Invitrogen); and NHLFs were maintained in FGM™-2 medium (Lonza) with 2% serum, supplemented with 10% heat-inactivated foetal bovine serum (FBS; Gibco, Grand Island, NY, USA). All cells were cultured at 37 °C in a humidified incubator containing 5% CO2 and 95% relative humidity.
as §1

[4] = tested on: SCM-1 cells; test: Cell viability (MTT) assay, SCM-1; type: cell-based; details: human gastric cancer cells, read-out: IC50 of cytotoxicity SCM-1
From the text: as §2, §1

[5] = tested on: SCC2095, MDA-MB-231 and SCM-1 cells; test: Cell viability (MTT) assay, cancer cell lines (summary); type: cell-based; details: Homo sapiens; SCC2095, MDA-MB-231, SCM-1; read-out: IC50 of cytotoxicity, range over cancer cell lines
From the text: as §2, §1

[6] = Cell viability (MTT) assay, normal human lung fibroblasts; type: cell-based; details: normal human lung fibroblasts (NHLF, CC-2512); normal human lung fibroblast cells; read-out: IC50 of cytotoxicity against normal cells
From the text: as §2, §1

[7] = tested on: SCC2095 cells; test: Annexin V-FITC/PI flow cytometric apoptosis analysis; type: cell-based, human; details: for apoptosis rate: 48 h
Description: Cells (2 × 10^5) were treated with tested compounds in 6-well plates for 24 h or 48 h, then washed with ice-cold PBS twice and harvested with trypsin. Cells were incubated with 5 µL Annexin V- FITC/PI (BD Pharmingen, San Diego) for 15 min in the dark condition. Then, the cells were measured by BD FACSCanto flow cytometer (BD, Franklin Lakes, NJ). For ROS determination, DMSO or H2O2 or compound 7 g-treated cells were stained with the ROS probe (DCFH-DA; 5 µM) and detected the DCFH-DA fluorescence.

[8] = tested on: SCC2095 cells; test: Western blotting of caspase- and HDAC-related proteins; type: cell-based, human; details: western blot
Description: The protein expression was performed as previously described. Proteins were resolved on 10% SDS-PAGE, then transferred to PVDF (Bio-Rad) membranes. After blocking with 5% skimmed milk in PBS containing 0.1% Tween 20, the membranes were probed with primary antibodies against interest target proteins at 4 °C overnight. The following primary antibodies were used: […], cleaved caspase 9, acetyl α-tubulin, Hsp90, Histone H2A.X, p38, p-^180Thr/^182Tyr p38, PPARγ, and p21 were purchased from Cell Signalling Technologies (Beverly, MA, USA); pro-caspase 8, Millipore; β-actin, Sigma-Aldrich (St. Louis, MO, USA). Then, the immunoblots were washed and exposed to HRP-conjugated secondary antibodies at room temperature for 1 h. The immunoblots were examined by enhanced chemiluminescence.

[9] = target: HDAC4 (Homo sapiens, UniProt P56524); test: HDAC inhibition assay, HDAC4
HDAC4, sequence (P56524 whole entry): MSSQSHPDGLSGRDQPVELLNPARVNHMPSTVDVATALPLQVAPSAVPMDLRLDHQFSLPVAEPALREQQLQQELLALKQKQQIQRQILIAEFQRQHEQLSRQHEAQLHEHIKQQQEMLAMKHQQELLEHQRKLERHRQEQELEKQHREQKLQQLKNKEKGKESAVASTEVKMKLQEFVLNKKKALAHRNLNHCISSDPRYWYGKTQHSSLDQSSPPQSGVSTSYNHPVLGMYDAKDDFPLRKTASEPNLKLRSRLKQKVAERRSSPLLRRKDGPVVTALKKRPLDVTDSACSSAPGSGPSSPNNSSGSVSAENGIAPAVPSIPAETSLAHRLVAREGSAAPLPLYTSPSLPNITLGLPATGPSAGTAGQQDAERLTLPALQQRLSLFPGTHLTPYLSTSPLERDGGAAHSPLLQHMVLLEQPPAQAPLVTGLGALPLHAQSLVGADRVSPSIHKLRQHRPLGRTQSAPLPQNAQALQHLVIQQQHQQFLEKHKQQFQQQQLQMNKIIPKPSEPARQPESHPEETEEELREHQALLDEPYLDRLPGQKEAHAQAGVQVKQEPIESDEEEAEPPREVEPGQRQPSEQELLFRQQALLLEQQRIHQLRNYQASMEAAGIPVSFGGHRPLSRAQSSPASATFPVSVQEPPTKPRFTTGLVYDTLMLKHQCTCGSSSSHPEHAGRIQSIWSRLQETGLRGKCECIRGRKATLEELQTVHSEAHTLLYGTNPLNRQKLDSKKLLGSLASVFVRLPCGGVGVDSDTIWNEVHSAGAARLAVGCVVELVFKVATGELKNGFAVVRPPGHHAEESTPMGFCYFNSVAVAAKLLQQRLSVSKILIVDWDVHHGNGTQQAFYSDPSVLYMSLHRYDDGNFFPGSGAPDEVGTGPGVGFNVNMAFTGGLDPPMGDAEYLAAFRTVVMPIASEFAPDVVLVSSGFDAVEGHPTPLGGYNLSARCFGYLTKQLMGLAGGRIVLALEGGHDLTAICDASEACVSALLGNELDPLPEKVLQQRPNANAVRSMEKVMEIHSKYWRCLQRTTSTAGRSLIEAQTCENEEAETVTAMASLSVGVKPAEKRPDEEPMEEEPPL

[10] = target: HDAC9 (Homo sapiens, UniProt Q9UKV0); test: HDAC inhibition assay, HDAC9
HDAC9, sequence (Q9UKV0 whole entry): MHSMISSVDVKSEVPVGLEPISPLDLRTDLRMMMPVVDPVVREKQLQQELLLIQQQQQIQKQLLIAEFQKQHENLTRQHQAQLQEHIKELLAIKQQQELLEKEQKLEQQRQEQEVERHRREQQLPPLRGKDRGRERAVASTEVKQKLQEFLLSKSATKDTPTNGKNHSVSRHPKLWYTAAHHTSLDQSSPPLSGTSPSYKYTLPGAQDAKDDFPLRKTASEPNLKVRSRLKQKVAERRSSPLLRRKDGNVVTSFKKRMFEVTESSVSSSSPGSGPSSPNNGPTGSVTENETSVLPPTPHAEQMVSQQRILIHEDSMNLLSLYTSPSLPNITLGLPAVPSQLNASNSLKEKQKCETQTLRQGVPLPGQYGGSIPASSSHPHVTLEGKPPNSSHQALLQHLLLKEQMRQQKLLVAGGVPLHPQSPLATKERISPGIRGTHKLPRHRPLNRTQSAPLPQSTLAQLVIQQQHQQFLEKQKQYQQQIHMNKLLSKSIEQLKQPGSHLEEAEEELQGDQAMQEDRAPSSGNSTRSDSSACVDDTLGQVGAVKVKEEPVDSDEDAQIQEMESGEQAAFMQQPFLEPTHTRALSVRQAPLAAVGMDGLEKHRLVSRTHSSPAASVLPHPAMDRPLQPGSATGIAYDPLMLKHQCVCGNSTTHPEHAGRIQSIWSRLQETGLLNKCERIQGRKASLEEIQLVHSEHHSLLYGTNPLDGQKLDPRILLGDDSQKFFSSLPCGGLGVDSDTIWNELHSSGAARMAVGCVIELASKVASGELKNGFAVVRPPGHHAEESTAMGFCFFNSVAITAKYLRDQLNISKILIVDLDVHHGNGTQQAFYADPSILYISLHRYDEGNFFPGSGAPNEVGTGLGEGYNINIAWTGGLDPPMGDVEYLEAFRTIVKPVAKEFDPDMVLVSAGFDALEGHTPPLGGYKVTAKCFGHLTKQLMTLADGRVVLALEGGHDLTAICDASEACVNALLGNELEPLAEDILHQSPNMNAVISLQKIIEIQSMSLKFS

SPR binding to HDAC4 protein [1]: can bind to HDAC4 protein
IC50 [9]: 0.18 ± 0.06 µM
IC50 [10]: 0.04 ± 0.001 µM
Compound: NC(=NO)c1ccc2c(c1)N(Cc1ccc(C(=O)NO)c(-c3ccccc3)c1)c1ccccc1S2 [Compound 7g, N-Hydroxy-4-[2-(N’-hydroxycarbamimidoyl)-10H-phenothiazin-10-yl]methyl-2-phenylbenzamide]
IC50 [2]: 3 ± 0.3 µM
IC50 [3]: 8.4 ± 2.7 µM
IC50 [4]: 5.8 ± 0.3 µM
IC50 [5]: 3 to 8.4 µM
IC50 [6]: 8 µM
apoptosis rate ([7]; 1 µM): 29.2%
apoptosis rate ([7]; 2.5 µM): 35.9%
apoptosis rate ([7]; 5 µM): 44.4%
apoptosis rate ([7]; 7.5 µM): 78.2%
percentage of apoptotic cells ([7]; 10 µM, 24 h): 83.6%
apoptosis rate ([7]; 10 µM): 87.1%
levels of Hsp90 ([8]; SCC2095, 24 h): increased
levels of PPARγ ([8]; SCC2095, 24 h): increased
levels of cleaved caspase 9 ([8]; SCC2095, 24 h): up-regulated
levels of p21 ([8]; SCC2095, 24 h): increased
levels of pro-caspase 8 ([8]; SCC2095, 24 h): down-regulated
phosphorylation of Histone H2A.X ([8]; SCC2095, DNA damage biomarker): increased
phosphorylation of p38 ([8]; SCC2095, dose-dependent): up-regulated
